Measurements as given in ChEMBL document CHEMBL1201862, “PubChem BioAssay data set” (2004).
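Cultured in 96-well plates, cells were exposed to test compound for 48 hours across five concentrations. GI50 = concentration required for 50% inhibition of growth.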 The source made the active and inactive calls. No stated cut-off is given here; in the data, active = GI50 up to about 1.1 µM and inactive = higher.

What was measured:
Experiment in all cases: growth of human tumour cells (NCI), 48 h
ACHN = tested on: ACHN
DU-145 = tested on: DU-145
HOP-92 = tested on: HOP-92
HT-29 = tested on: HT-29
K562 = tested on: K562
KM12 = tested on: KM12
MDA-N = tested on: MDA-N
Malme-3M = tested on: Malme-3M
NCI-H226 = tested on: NCI-H226
NCI-H23 = tested on: NCI-H23
OVCAR-8 = tested on: OVCAR-8
RXF 393 = tested on: RXF 393
SF-539 = tested on: SF-539
SK-MEL-28 = tested on: SK-MEL-28
SK-OV-3 = tested on: SK-OV-3
SW-620 = tested on: SW-620
U-251 = tested on: U-251
UACC-62 = tested on: UACC-62
SF-295 = tested on: SF-295
TK-10 = tested on: TK-10

Structure (SMILES)	GI50 (ACHN)	GI50 (DU-145)	GI50 (HOP-92)	GI50 (HT-29)	GI50 (K562)	GI50 (KM12)	GI50 (MDA-N)	GI50 (Malme-3M)	GI50 (NCI-H226)	GI50 (NCI-H23)	GI50 (OVCAR-8)	GI50 (RXF 393)	GI50 (SF-539)	GI50 (SK-MEL-28)	GI50 (SK-OV-3)	GI50 (SW-620)	GI50 (U-251)	GI50 (UACC-62)	GI50 (SF-295)	GI50 (TK-10)
COc1cc(-c2ccccc2)cn2c1nc1ccccc12	20 µM (inactive)	25.6 µM (inactive)	14.5 µM (inactive)	17.3 µM (inactive)	25.2 µM (inactive)	17.9 µM (inactive)	17.7 µM (inactive)	20.2 µM (inactive)	17.5 µM (inactive)	35 µM (inactive)	24.8 µM (inactive)	17.3 µM (inactive)	26.6 µM (inactive)	17 µM (inactive)	23.9 µM (inactive)	35 µM (inactive)	20 µM (inactive)	18.7 µM (inactive)	–	–
CN(C)c1c(Cl)c(=O)oc2c1ccc1nc(-c3ccccc3)sc12	> 100 µM (inactive)	> 100 µM (inactive)	> 100 µM (inactive)	> 100 µM (inactive)	> 100 µM (inactive)	> 100 µM (inactive)	> 100 µM (inactive)	31.5 µM (inactive)	> 100 µM (inactive)	> 100 µM (inactive)	> 100 µM (inactive)	55.3 µM (inactive)	> 100 µM (inactive)	> 100 µM (inactive)	–	> 100 µM (inactive)	> 100 µM (inactive)	64.6 µM (inactive)	> 100 µM (inactive)	> 100 µM (inactive)
Oc1ccc(Cl)cc1-c1cc(-c2ccccc2)nc(NCN2CCCCC2)n1	24.2 µM (inactive)	> 100 µM (inactive)	> 100 µM (inactive)	> 100 µM (inactive)	> 100 µM (inactive)	0.78 µM (active)	> 100 µM (inactive)	> 100 µM (inactive)	0.838 µM (active)	72.1 µM (inactive)	> 100 µM (inactive)	> 100 µM (inactive)	> 100 µM (inactive)	> 100 µM (inactive)	> 100 µM (inactive)	> 100 µM (inactive)	> 100 µM (inactive)	> 100 µM (inactive)	–	> 100 µM (inactive)
COc1ccc(/C=C(/C#N)C(N)=O)c(OC)c1	> 100 µM (inactive)	> 100 µM (inactive)	36.4 µM (inactive)	> 100 µM (inactive)	31.8 µM (inactive)	> 100 µM (inactive)	19.3 µM (inactive)	–	> 100 µM (inactive)	> 100 µM (inactive)	> 100 µM (inactive)	> 100 µM (inactive)	> 100 µM (inactive)	> 100 µM (inactive)	> 100 µM (inactive)	79.3 µM (inactive)	> 100 µM (inactive)	42.6 µM (inactive)	82.8 µM (inactive)	> 100 µM (inactive)
CC(C)(C)OC(=O)NC(Cc1ccc(OCc2ccccc2)cn1)C(N)=O (stereo unspecified)	> 100 µM (inactive)	> 100 µM (inactive)	> 100 µM (inactive)	> 100 µM (inactive)	> 100 µM (inactive)	> 100 µM (inactive)	68.5 µM (inactive)	> 100 µM (inactive)	97.3 µM (inactive)	86.5 µM (inactive)	> 100 µM (inactive)	> 100 µM (inactive)	> 100 µM (inactive)	> 100 µM (inactive)	–	> 100 µM (inactive)	> 100 µM (inactive)	–	> 100 µM (inactive)	> 100 µM (inactive)
CN1C(=O)c2ccc3ccccc3c2C1=O	> 100 µM (inactive)	> 100 µM (inactive)	98.6 µM (inactive)	> 100 µM (inactive)	> 100 µM (inactive)	> 100 µM (inactive)	> 100 µM (inactive)	–	> 100 µM (inactive)	> 100 µM (inactive)	> 100 µM (inactive)	30.8 µM (inactive)	> 100 µM (inactive)	> 100 µM (inactive)	> 100 µM (inactive)	> 100 µM (inactive)	> 100 µM (inactive)	> 100 µM (inactive)	> 100 µM (inactive)	> 100 µM (inactive)
O=C(O)c1cccc(OCCOc2cccc(C(=O)O)c2[N+](=O)[O-])c1[N+](=O)[O-]	> 100 µM (inactive)	> 100 µM (inactive)	> 100 µM (inactive)	> 100 µM (inactive)	–	> 100 µM (inactive)	> 100 µM (inactive)	> 100 µM (inactive)	> 100 µM (inactive)	> 100 µM (inactive)	> 100 µM (inactive)	> 100 µM (inactive)	> 100 µM (inactive)	> 100 µM (inactive)	> 100 µM (inactive)	> 100 µM (inactive)	> 100 µM (inactive)	> 100 µM (inactive)	> 100 µM (inactive)	> 100 µM (inactive)
